Activity calls are given as the source filed them. No rule for the calls is given here.
How the values were obtained:
Experiment in all cases: inhibitors of GTP binding, eight-GTPase multiplex, SAR follow-up, biochemical, bead flow cytometry, Mg non-chelator buffer, round 2 (AID 588622)
Conditions in all cases: bead-based flow cytometry multiplex GTP binding; for % response (lower = inhibition): at 100 µM (top of the series)
[1] = molecular target: RacWT
[2] = molecular target: RhoWT
[3] = molecular target: Rab7
[4] = molecular target: RacACT
[5] = molecular target: Cdc42WT

| SMILES | % response (lower = inhibition) [1] | EC50 [2] [nM] | EC50 [3] [nM] | EC50 [4] [nM] | EC50 [5] [nM] | EC50 [1] [nM] | % response (lower = inhibition) [4] | % response (lower = inhibition) [2] | % response (lower = inhibition) [5] | % response (lower = inhibition) [3] |
| --- | --- | --- | --- | --- | --- | --- | --- | --- | --- | --- |
| CC1(C)Cc2c(sc(NC(=S)NC(=O)c3ccc(Br)cc3)c2C(=O)O)CO1 |  | 475 | 431 | 455 | 539 | 391 |  |  |  |  |
| CC1(C)Cc2c(sc(NC(=S)Nc3ccccc3)c2C(=O)O)CO1 | inactive |  | 4990 |  |  |  | inactive | inactive | inactive |  |
| COc1ccc(C(=O)NC(=S)Nc2sc3c(c2C(=O)O)CC(C)(C)OC3)cc1 |  | 213 | 214 | 243 | 203 | 197 |  |  |  |  |
| CC1(C)Cc2c(sc(NC(=S)NC(=O)c3ccco3)c2C(=O)O)CO1 |  | 92 | 82 | 59 | 62 | 59 |  |  |  |  |
| COc1cccc(C(=O)NC(=S)Nc2sc3c(c2C(=O)O)CC(C)(C)OC3)c1 | inactive | 292 | 323 |  | 251 |  | inactive |  |  |  |
| CC1(C)Cc2c(sc(NC(=S)NC(=O)c3cccs3)c2C(=O)O)CO1 |  | 33 | 25 | 27 | 30 | 29 |  |  |  |  |
| CC1(C)Cc2c(sc(NC(=S)NC(=O)C3CCCCC3)c2C(=O)O)CO1 |  | 814 | 461 | 397 | 660 | 495 |  |  |  |  |
| COc1ccccc1C(=O)NC(=S)Nc1sc2c(c1C(=O)O)CC(C)(C)OC2 | inactive |  |  |  |  |  | inactive | inactive | inactive | inactive |

The remaining lines, values ahead:

| % response (lower = inhibition) [1] | EC50 [2] [nM] | EC50 [3] [nM] | EC50 [4] [nM] | EC50 [5] [nM] | EC50 [1] [nM] | % response (lower = inhibition) [4] | % response (lower = inhibition) [2] | % response (lower = inhibition) [5] | % response (lower = inhibition) [3] | SMILES |
| --- | --- | --- | --- | --- | --- | --- | --- | --- | --- | --- |
| inactive | 1330 | 1250 | 1180 | 1560 |  |  |  |  |  | CC1(C)Cc2c(sc(NC(=S)NC(=O)c3ccccc3Br)c2C(=O)O)CO1 |
| inactive | 1450 | 325 |  | 1680 |  | inactive |  |  |  | Cc1cccc(C(=O)NC(=S)Nc2sc3c(c2C(=O)O)CC(C)(C)OC3)c1 |
|  | 131 | 97 | 139 | 109 | 147 |  |  |  |  | Cc1ccc(C(=O)NC(=S)Nc2sc3c(c2C(=O)O)CC(C)(C)OC3)cc1 |
|  | 486 | 523 | 370 | 352 | 438 |  |  |  |  | Cc1ccccc1C(=O)NC(=S)Nc1sc2c(c1C(=O)O)CC(C)(C)OC2 |
|  | 197 | 218 | 146 | 164 | 139 |  |  |  |  | CC(C)(C)C1Cc2c(sc(NC(=S)NC(=O)c3ccccc3)c2C(=O)O)CO1 (stereo not given) |
| inactive |  |  |  |  |  | inactive | inactive | inactive | inactive | CC1(C)Cc2c(sc(NC(=S)NC(=O)c3cccc(Br)c3)c2C(=O)O)CO1 |
|  | 62 | 69 | 48 | 62 | 48 |  |  |  |  | CC1(C)CCc2sc(NC(=S)NC(=O)c3ccccc3)c(C(=O)O)c2C1 |
|  | 599 | 423 |  | 689 | 491 | inactive |  |  |  | CC1(C)Cc2c(sc(NC(=S)NC(=O)c3cccc(F)c3)c2C(=O)O)CO1 |
|  | 46 | 35 | 46 | 51 | 53 |  |  |  |  | CCC1(C)Cc2c(sc(NC(=S)NC(=O)c3ccccc3)c2C(=O)O)CO1 (stereo not given) |
|  | 431 | 316 | 455 | 443 | 452 |  |  |  |  | CC1(C)Cc2c(sc(NC(=S)NC(=O)c3ccccc3F)c2C(=O)O)CO1 |
|  | 112 | 77 | 133 | 171 | 147 |  |  |  |  | CC1(C)Cc2c(sc(NC(=S)NC(=O)c3ccc(F)cc3)c2C(=O)O)CO1 |
|  | 101 | 33 | 80 | 50 | 56 |  |  |  |  | O=C(NC(=S)Nc1sc2c(c1C(=O)O)CC1(CCCC1)OC2)c1ccccc1 |

From PubChem BioAssay AID588622 (NMMLSC, 2011)
